# Source: patent publication US7728155B2, “Dihydrobenzofuranyl alkanamines and methods for using same as cns agents” (Wyeth LLC, priority 2003, dated 2010)
# Where two headings read alike, the source gives them in different places.
# Tests used:
# human 5-HT2C receptor = biological target: T1, human 5-HT2C receptor (Homo sapiens, UniProt P28335); test: 5-HT2C receptor-stimulated calcium mobilization (FLIPR) in CHO cells; assay type: cell-based; details: for Emax: CHO, read-out: 5-HT2C Function Emax (%); for EC50: calcium mobilization, CHO cells expressing human 5-HT2C, read-out: 5-HT2C Function EC50
# T1 sequence (P28335 33-458): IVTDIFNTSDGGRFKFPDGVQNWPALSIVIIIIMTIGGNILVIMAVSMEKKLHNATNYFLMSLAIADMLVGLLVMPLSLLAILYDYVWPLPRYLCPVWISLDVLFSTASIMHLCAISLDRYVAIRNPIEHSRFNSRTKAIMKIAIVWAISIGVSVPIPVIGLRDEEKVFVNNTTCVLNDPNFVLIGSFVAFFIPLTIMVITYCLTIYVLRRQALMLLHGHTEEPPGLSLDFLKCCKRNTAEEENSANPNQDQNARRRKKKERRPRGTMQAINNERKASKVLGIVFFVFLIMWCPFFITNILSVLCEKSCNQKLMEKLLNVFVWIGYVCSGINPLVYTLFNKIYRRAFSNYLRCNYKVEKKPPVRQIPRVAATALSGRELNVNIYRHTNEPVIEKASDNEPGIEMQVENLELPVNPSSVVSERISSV
# [1] = biological target: T2, human 5-hydroxytryptamine-2C (h5-HT2C) receptor (Homo sapiens, UniProt P28335); test: [125I]DOI binding affinity at h5-HT2C receptor, CHO cell membranes; details: for Ki: [125I]DOI displacement, CHO membranes expressing h5-HT2C
# T2 construct: expressed in transfected cells; host or cells: CHO (Chinese Hamster Ovary) cells; membranes
# T2 sequence (P28335 33-458): T1 sequence (P28335 33-458)
# [2] = percentage of the response to a maximally effective concentration of 5-HT
SMILES,Emax (human 5-HT2C receptor; [2]) [%],EC50 (human 5-HT2C receptor) [nM],Ki ([1]; read-out: 5-HT2C Affinity Ki) [nM],5-HT2C Function Emax (%) (human 5-HT2C receptor; [2]),also measured
"NCC1Cc2ccc3c(c2O1)CCC3 (racemic) [Example 1, (±)-1-(3,6,7,8-tetrahydro-2H-indeno[4,5-b]furan-2-yl)methanamine]",90,31,10,,
"NCC1Cc2ccc3c(c2O1)CCCC3 (racemic) [Example 4, (±)-1-(2,3,6,7,8,9-hexahydronaphtho[1,2-b]furan-2-yl)methanamine]",80,76,8,,
"Cc1cc2c(c3c1CCC3)OC(CN)C2 (racemic) [Example 7, (±)-1-(5-methyl-3,6,7,8-tetrahydro-2H-indeno[4,5-b]furan-2-yl)methanamine]",95,19,6,,
"NCC1Cc2ccc3ccccc3c2O1 (racemic) [Example 10, (±)-1-(2,3-dihydronaphtho[1,2-b]furan-2-yl)methanamine]",90,20,29,,
"NCC1Cc2cc3c(cc2O1)CCCC3 (racemic) [Example 13, (±)-1-(2,3,5,6,7,8-hexahydronaphtho[2,3-b]furan-2-yl)methanamine]",,,99,,
"NCC1Cc2c(ccc3c2CCCC3)O1 (racemic) [Example 14, (±)-1-(1,2,6,7,8,9-hexahydronaphtho[2,1-b]furan-2-yl)methanamine]",100,34,19,,
"COc1cc2c(c3c1C1CCC3CC1)OC(CN)C2 (racemic) [Example 19, (±)-1-(5-methoxy-2,3,6,7,8,9-hexahydro-6,9-ethanonaphtho[1,2-b]furan-2-yl)methanamine]",100,25,7,,
"NCC1Cc2cc(Cl)c3ccccc3c2O1 (racemic) [Example 23, (±)-1-(5-chloro-2,3-dihydronaphtho[1,2-b]furan-2-yl)methanamine]",90,28,5,,
"CNCC1Cc2cc(Cl)c3ccccc3c2O1 (racemic) [Example 24, (±)-1-(5-chloro-2,3-dihydronaphtho[1,2-b]furan-2-yl)-N-methylmethanamine]",60,91,7,,
"NCC1Cc2c(Cl)cc3c(c2O1)CCC3 (racemic) [Example 25, (±)-1-(4-chloro-3,6,7,8-tetrahydro-2H-indeno[4,5-b]furan-2-yl)methanamine]",80,4.4,12,,
"NCC1Cc2cc(Cl)c3c(c2O1)CCC3 (racemic) [Example 29, (±)-1-(5-chloro-3,6,7,8-tetrahydro-2H-indeno[4,5-b]furan-2-yl)methanamine]",100,5.8,4,,
"COc1cc2c(c3c1C1CCC3C1)OC(CN)C2 (single isomer, unassigned) [Example 16, (9-methoxy-4-oxatetracyclo[9.2.1.0^2,10.0^3,7]tetradeca-2,7,9-trien-5-yl)methylamine]",,,85,,
"COc1cc2c(c3c1C1CCC3C1)OC(CN)C2 (single isomer, unassigned) [Example 17, (9-methoxy-4-oxatetracyclo[9.2.1.0^2,10.0^3,7]tetradeca-2,7,9-trien-5-yl)methylamine]",100,10,8,,
"COc1cc2c(c3c1C1CCC3C1)OC(CN)C2 (single isomer, unassigned) [Example 18, (9-methoxy-4-oxatetracyclo[9.2.1.0^2,10.0^3,7]tetradeca-2,7,9-trien-5-yl)methylamine]",,,82,,
"C[C@@H](N)[C@H]1Cc2ccc3c(c2O1)CCC3 (single isomer, unassigned) [Example 22, (2R*)-1-[(2R*)-3,6,7,8-tetrahydro-2H-indeno[4,5-b]furan-2-yl]ethylamine]",,15,,,Emax (human 5-HT2C receptor): 80%; Ki ([1]; 5-HT2C Affinity Ki (nM)): 13 nM
"NCC1Cc2ccc3c(c2O1)CCC3 (single isomer, unassigned; (+)) [Example 2, (+)-1-(3,6,7,8-tetrahydro-2H-indeno[4,5-b]furan-2-yl)methanamine]",,8,28,75,
"NCC1Cc2ccc3c(c2O1)CCCC3 (single isomer, unassigned; (+)) [Example 5, (+)-1-(2,3,6,7,8,9-hexahydronaphtho[1,2-b]furan-2-yl)methanamine]",,38,17,70,
"Cc1cc2c(c3c1CCC3)OC(CN)C2 (single isomer, unassigned; (+)) [Example 8, (+)-1-(5-methyl-3,6,7,8-tetrahydro-2H-indeno[4,5-b]furan-2-yl)methanamine]",100,8.3,6,,
"NCC1Cc2ccc3ccccc3c2O1 (single isomer, unassigned; (+)) [Example 11, (+)-1-(2,3-dihydronaphtho[1,2-b]furan-2-yl)methanamine]",,5.7,15,65,
"COc1cc2c(c3c1C1CCC3CC1)OC(CN)C2 (single isomer, unassigned; (+)) [Example 20, (+)-1-(5-methoxy-2,3,6,7,8,9-hexahydro-6,9-ethanonaphtho[1,2-b]furan-2-yl)methanamine]",,91,22,60,
"NCC1Cc2c(Cl)cc3c(c2O1)CCC3 (single isomer, unassigned; (+)) [Example 27, (+)-1-(4-chloro-3,6,7,8-tetrahydro-2H-indeno[4,5-b]furan-2-yl)methanamine]",,56,4,60,
"NCC1Cc2cc(Cl)c3c(c2O1)CCC3 (single isomer, unassigned; (+)) [Example 31, (+)-1-(5-chloro-3,6,7,8-tetrahydro-2H-indeno[4,5-b]furan-2-yl)methanamine]",,10,1,40,
"NCC1Cc2ccc3c(c2O1)CCC3 (single isomer, unassigned; (-)) [Example 3, (−)-1-(3,6,7,8-tetrahydro-2H-indeno[4,5-b]furan-2-yl)methanamine]",,0.9,5,100,
"NCC1Cc2ccc3c(c2O1)CCCC3 (single isomer, unassigned; (-)) [Example 6, (−)-1-(2,3,6,7,8,9-hexahydronaphtho[1,2-b]furan-2-yl)methanamine]",,3,11,100,
"Cc1cc2c(c3c1CCC3)OC(CN)C2 (single isomer, unassigned; (-)) [Example 9, (−)-1-(5-methyl-3,6,7,8-tetrahydro-2H-indeno[4,5-b]furan-2-yl)methanamine]",,11,11,100,
"NCC1Cc2ccc3ccccc3c2O1 (single isomer, unassigned; (-)) [Example 12, (−)-1-(2,3-dihydronaphtho[1,2-b]furan-2-yl)methanamine]",,2,16,90,
"COc1cc2c(c3c1C1CCC3CC1)OC(CN)C2 (single isomer, unassigned; (-)) [Example 21, (−)-1-(5-methoxy-2,3,6,7,8,9-hexahydro-6,9-ethanonaphtho[1,2-b]furan-2-yl)methanamine]",,0.8,4,90,
"NCC1Cc2c(Cl)cc3c(c2O1)CCC3 (single isomer, unassigned; (-)) [Example 26, (−)-1-(4-chloro-3,6,7,8-tetrahydro-2H-indeno[4,5-b]furan-2-yl)methanamine]",80,88,16,,
"CSc1ccc2c(c1)C(N1CCN(C)CC1)Cc1ccccc1S2 (centres unmarked) [Methiothepin, reference compound]",,,,,"Ki ([1]; reference compounds, read-out: Ki (95% confidence interval)): 4.6 nM"
"COc1cc(CC(C)N)c(OC)cc1I (centres unmarked) [[^125I] DOI, reference compound]",,,,,"Kd ([1]; saturation binding with increasing concentrations of [125I]DOI, read-out: dissociation constant, KD): 0.4 nM"
